# In patent US8389557B2, “Triazole derivatives useful as Axl inhibitors” (Rigel Pharmaceuticals, Inc., priority 2005, dated 2013):
# Target: T1, Axl (Homo sapiens, UniProt P30530)
# T1 construct: endogenous in cells; host or cells: HeLa cells
# T1 sequence (P30530 26-894): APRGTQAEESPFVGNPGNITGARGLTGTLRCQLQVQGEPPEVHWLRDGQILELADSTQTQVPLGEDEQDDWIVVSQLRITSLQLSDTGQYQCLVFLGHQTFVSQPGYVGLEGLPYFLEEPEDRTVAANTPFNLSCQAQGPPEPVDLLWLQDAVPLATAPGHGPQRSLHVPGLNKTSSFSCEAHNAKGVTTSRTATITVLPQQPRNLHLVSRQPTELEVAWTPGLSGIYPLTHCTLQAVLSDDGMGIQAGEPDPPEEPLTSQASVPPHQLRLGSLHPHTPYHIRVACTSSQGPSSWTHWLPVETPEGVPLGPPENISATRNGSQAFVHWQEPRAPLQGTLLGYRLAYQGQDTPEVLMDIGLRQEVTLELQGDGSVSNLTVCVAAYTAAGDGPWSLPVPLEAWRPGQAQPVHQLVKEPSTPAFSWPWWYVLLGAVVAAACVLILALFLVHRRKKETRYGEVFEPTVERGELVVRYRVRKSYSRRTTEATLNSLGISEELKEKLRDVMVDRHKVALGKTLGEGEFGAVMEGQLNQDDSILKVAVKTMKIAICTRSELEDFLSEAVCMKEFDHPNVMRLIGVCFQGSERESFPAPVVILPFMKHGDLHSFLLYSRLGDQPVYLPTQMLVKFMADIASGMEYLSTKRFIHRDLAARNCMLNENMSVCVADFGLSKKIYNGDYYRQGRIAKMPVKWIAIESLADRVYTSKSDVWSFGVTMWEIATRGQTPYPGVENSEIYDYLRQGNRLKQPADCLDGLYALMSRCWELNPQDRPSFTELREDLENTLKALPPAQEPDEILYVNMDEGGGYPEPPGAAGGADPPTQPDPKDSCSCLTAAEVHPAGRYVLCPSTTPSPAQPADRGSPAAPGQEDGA
# Assay: Phospho-Akt in-cell Western assay (inhibition of Axl activity)
# Format: cell-based
# How it was run: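 HeLa cells on poly-L-lysine, starved 24 h in 0.5% FCS DMEM with Axl/Fc 500 ng/mL, pre-treated with compound 1 h at 37° C. Axl stimulated 5 min by anti-Axl/anti-mouse antibody cross-linking. Fixed cells probed with anti-phospho-Akt and HRP secondary, chemiluminescence read.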
# [1] = inhibition of Axl activity, Table 1
SMILES,IC50 [1],further results
"Nc1nc(Nc2ccc3c(c2)OCCO3)n(C(=O)c2ccccc2)n1 [compound 92, 3-amino-5-(1,4-benzodioxan-6-yl)amino-1-phenylcarbonyl-1H-1,2,4-triazole]",–,"IC50 (Table 2, Hela cells, Axl antibody cross-linking stimulation, phospho-Akt chemiluminescence): 1 to 10 µM"
"COC(=O)n1nc(N)nc1Nc1ccc2c(c1)OCCO2 [compound 93, 3-amino-5-(1,4-benzodioxan-6-yl)amino-1-methoxycarbonyl-1H-1,2,4-triazole]",–,"IC50 (Table 8, Hela cells, Axl antibody cross-linking stimulation, phospho-Akt chemiluminescence): > 20 µM"
"Nc1nc(Nc2ccc3c(c2)OCCO3)nn1C(=O)c1ccccc1Cl [compound 94, 5-amino-1-(2-(chloro)phenyl)carbonyl-3-(1,4-benzodioxan-6-yl)amino-1H-1,2,4-triazole]",> 20 µM,–
"Cc1cccc(C(=O)n2nc(Nc3ccc4c(c3)OCCO4)nc2N)c1 [compound 96, 5-amino-3-(1,4-benzodioxan-6-yl)amino-1-(3-(methyl)phenyl)carbonyl-1H-1,2,4-triazole]",1 to 10 µM,–
"Cc1ccccc1C(=O)n1nc(Nc2ccc3c(c2)OCCO3)nc1N [compound 97, 5-amino-3-(1,4-benzodioxan-6-yl)amino-1-(2-(methyl)phenyl)carbonyl-1H-1,2,4-triazole]",10 to 20 µM,–
"Nc1nc(Nc2ccc3c(c2)OCCO3)nn1C(=O)c1ccccc1F [compound 99, 5-amino-3-(1,4-benzodioxan-6-yl)amino-1-(2-(fluoro)phenyl)carbonyl-1H-1,2,4-triazole]",10 to 20 µM,–
"Nc1nc(Nc2ccc3c(c2)OCCO3)nn1C(=O)c1cccc(Cl)c1 [compound 101, 5-amino-1-(3-(chloro)phenyl)carbonyl-3-(1,4-benzodioxan-6-yl)amino-1H-1,2,4-triazole]",1 to 10 µM,–
"CCOC(=O)c1cc2cc(Nc3nc(N)n(C(=O)c4cccc(OC(C)C)c4)n3)ccc2o1 [compound 103, 5-amino-3-(2-(ethoxycarbonyl)benzofuran-5-yl)amino-1-(3-(iso-propoxy)phenyl)carbonyl-1H-1,2,4-triazole]",–,"IC50 (Table 5, Hela cells, Axl antibody cross-linking stimulation, phospho-Akt chemiluminescence): > 20 µM"
"Nc1nc(Nc2ccc3c(c2)OCCO3)nn1C(=O)c1cccc(F)c1 [compound 105, 5-amino-3-(1,4-benzodioxan-6-yl)amino-1-(3-(fluoro)phenyl)carbonyl-1H-1,2,4-triazole]",> 20 µM,–
"COc1ccccc1C(=O)n1nc(Nc2ccc3c(c2)OCCO3)nc1N [compound 106, 5-amino-3-(1,4-benzodioxan-6-yl)amino-1-(2-(methyloxy)phenyl)carbonyl-1H-1,2,4-triazole]",> 20 µM,–
"CC(=O)Oc1ccc(C(=O)n2nc(Nc3ccc4c(c3)OCCO4)nc2N)cc1 [compound 109, 1-(4-(Acetoxy)phenyl)carbonyl-5-amino-3-(1,4-benzodioxan-6-yl)amino-1H-1,2,4-triazole]",1 to 10 µM,–
"CC(=O)Oc1cccc(C(=O)n2nc(Nc3ccc4c(c3)OCCO4)nc2N)c1 [compound 110, 1-(3-(Acetoxy)phenyl)carbonyl-5-amino-3-(1,4-benzodioxan-6-yl)amino-1H-1,2,4-triazole]",1 to 10 µM,–
"CC(C)Oc1ccc(C(=O)n2nc(Nc3cccc(OC4CCCC4)c3)nc2N)cc1 [compound 116, 5-amino-3-[3-(cyclopentoxy)phenylamino]-1-(4-(iso-propoxy)phenyl)carbonyl-1H-1,2,4-triazole]",> 20 µM,–
"CC(=O)Oc1ccccc1C(=O)n1nc(Nc2ccc3c(c2)OCCO3)nc1N [compound 119, 1-(2-(acetoxy)phenyl)carbonyl-5-amino-3-(1,4-benzodioxan-6-yl)amino-1H-1,2,4-triazole]",1 to 10 µM,–
Nc1nc(Nc2ccc3c(c2)OCCO3)nn1C(=O)c1ccc(OC2CCCC2)cc1 [compound 120],> 20 µM,–
"Nc1nc(Nc2ccc3c(c2)OCCO3)nn1C(=O)c1cccc(OC2CCCC2)c1 [compound 127, 5-amino-1-(3-(cyclopentoxy)phenyl)carbonyl-3-(1,4-benzodioxan-6-yl)amino-1H-1,2,4-triazole]",1 to 10 µM,–
"CCOc1cccc(C(=O)n2nc(Nc3ccc4c(c3)OCCO4)nc2N)c1 [compound 128, 5-amino-1-(3-(ethoxy)phenyl)carbonyl-3-(1,4-benzodioxan-6-yl)amino-1H-1,2,4-triazole]",> 20 µM,–

# More lines, main results first:
IC50 [1],SMILES,further results
1 to 10 µM,"Nc1nc(Nc2ccc3c(c2)OCCO3)nn1C(=O)c1ccc(Cl)cc1 [compound 95, 5-amino-1-(4-(chloro)phenyl)carbonyl-3-(1,4-benzodioxan-6-yl)amino-1H-1,2,4-triazole]",–
1 to 10 µM,"COc1cccc(C(=O)n2nc(Nc3ccc4c(c3)OCCO4)nc2N)c1 [compound 98, 5-amino-3-(1,4-benzodioxan-6-yl)amino-1-(3-(methoxy)phenyl)carbonyl-1H-1,2,4-triazole]",–
> 20 µM,"Nc1nc(Nc2ccc3c(c2)OCCO3)nn1C(=O)c1ccc(F)cc1 [compound 100, 5-amino-3-(1,4-benzodioxan-6-yl)amino-1-(4-(fluoro)phenyl)carbonyl-1H-1,2,4-triazole]",–
1 to 10 µM,"COc1ccc(C(=O)n2nc(Nc3ccc4c(c3)OCCO4)nc2N)cc1 [compound 102, 5-amino-3-(1,4-benzodioxan-6-yl)amino-1-(4-(methyloxy)phenyl)carbonyl-1H-1,2,4-triazole]",–
1 to 10 µM,"Cc1ccc(C(=O)n2nc(Nc3ccc4c(c3)OCCO4)nc2N)cc1 [compound 104, 5-amino-3-(1,4-benzodioxan-6-yl)amino-1-(4-(methyl)phenyl)carbonyl-1H-1,2,4-triazole]",–
1 to 10 µM,"CC(C)Oc1ccc(Nc2nc(N)n(C(=O)c3ccc(OC(C)C)cc3)n2)cc1 [compound 111, 5-amino-3-[4-(iso-propoxy)phenylamino]-1-(4-(iso-propoxy)phenyl)carbonyl-1H-1,2,4-triazole]",–
1 to 10 µM,"CC(C)Oc1cccc(C(=O)n2nc(Nc3ccc4c(c3)OCCO4)nc2N)c1 [compound 112, 5-amino-3-(1,4-benzodioxan-6-yl)amino-1-(3-(iso-propoxy)phenyl)carbonyl-1H-1,2,4-triazole]",–
1 to 10 µM,"CC(C)Oc1ccc(C(=O)n2nc(Nc3ccc4c(c3)OCCO4)nc2N)cc1 [compound 113, 5-amino-3-(1,4-benzodioxan-6-yl)amino-1-(4-(iso-propoxy)phenyl)carbonyl-1H-1,2,4-triazole]",–
1 to 10 µM,CCOc1ccc(C(=O)n2nc(Nc3ccc4c(c3)OCCO4)nc2N)cc1 [compound 114],–
1 to 10 µM,"COc1ccc(Nc2nc(N)n(C(=O)c3ccc(OC(C)C)cc3)n2)cc1 [compound 117, 5-amino-1-(4-(iso-propoxy)phenyl)carbonyl-3-[4-(methoxy)phenylamino]-1H-1,2,4-triazole]",–
1 to 10 µM,"CCOc1ccc(Nc2nc(N)n(C(=O)c3ccc(OC(C)C)cc3)n2)cc1 [compound 118, 5-amino-3-[4-(ethoxy)phenylamino]-1-(4-(iso-propoxy)phenyl)carbonyl-1H-1,2,4-triazole]",–
1 to 10 µM,"COc1cccc(Nc2nc(N)n(C(=O)c3ccc(OC(C)C)cc3)n2)c1 [compound 121, 5-amino-1-(4-(iso-propoxy)phenyl)carbonyl-3-[3-(methoxy)phenylamino]-1H-1,2,4-triazole]",–
1 to 10 µM,"CC(C)Oc1ccc(C(=O)n2nc(Nc3cccc(OC(C)C)c3)nc2N)cc1 [compound 122, 5-amino-3-[3-(iso-propoxy)phenylamino]-1-(4-(iso-propoxy)phenyl)carbonyl-1H-1,2,4-triazole]",–
10 to 20 µM,"Cc1ccc(C(=O)n2nc(Nc3ccc(F)cc3)nc2N)cc1 [compound 123, 5-amino-3-[4-(fluoro)phenylamino]-1-(4-(methyl)phenyl)carbonyl-1H-1,2,4-triazole]",–
10 to 20 µM,"Cc1ccc(C(=O)n2nc(Nc3cccc(F)c3)nc2N)cc1 [compound 124, 5-amino-3-[3-(fluoro)phenylamino]-1-(4-(methyl)phenyl)carbonyl-1H-1,2,4-triazole]",–
1 to 10 µM,"CCOc1cccc(Nc2nc(N)n(C(=O)c3ccc(OC(C)C)cc3)n2)c1 [compound 125, 5-amino-3-[3-(ethoxy)phenylamino]-1-(4-(iso-propoxy)phenyl)carbonyl-1H-1,2,4-triazole]",–
1 to 10 µM,"COC(=O)COc1ccc(C(=O)n2nc(Nc3ccc4c(c3)OCCO4)nc2N)cc1 [compound 126, 5-amino-3-(1,4-benzodioxan-6-yl)amino-1-[4-(methoxycarbonylmethoxy)phenyl)carbonyl-1H-1,2,4-triazole]",–
> 20 µM,"Cc1ccc(C(=O)n2nc(Nc3ccccc3F)nc2N)cc1 [compound 129, 5-amino-3-[2-(fluoro)phenylamino]-1-(4-(methyl)phenyl)carbonyl-1H-1,2,4-triazole]",–
